# Experimental data: patent US20020051978A1, “Methods and compositions for the identification, assessment, prevention and therapy of human cancers” (priority 2000, published 2002)
# Values joined by “and” are separate entries in the source; they are usually repeats but may differ in a detail not shown here. Identical values can stand only once. Like-named read-outs stand apart in the source and are kept apart here.
# Experiments:
# tumor = conditions: animal models; cited from earlier work
# [1] = tested on: 60 cancer cell lines (NCI 60 cancer cell line series); assay: NCI-DTP in vitro cancer screen, sulforhodamine B (SRB) growth inhibition, 48 hour exposure; assay type: cell-based, human; parameters: key to sensitivity class Ovarian OVCAR-8 CL6005 / sensitivity class Ovarian SK-OV-3 CL6011 / sensitivity class Prostate DU-145 CL11003 / sensitivity class NSCLC NCI-H522 CL1003 / sensitivity class Ovarian IGROV1 CL6010 / sensitivity class Ovarian OVCAR-4 CL6002 / sensitivity class Prostate PC-3(I) CL11001 / sensitivity class Renal A498 CL9013 / sensitivity class Renal SN12C CL9008: sensitivity class: 1 = Low, 2 = Medium, 3 = High; conditions: for sensitivity class NSCLC NCI-H23(I) CL1001: cell line NSCLC NCI-H23(I); for sensitivity class NSCLC NCI-H522 CL1003: cell line NSCLC NCI-H522, CL1003; for sensitivity class Ovarian IGROV1 CL6010: cell line Ovarian IGROV1, CL6010; for sensitivity class Ovarian OVCAR-4 CL6002: cell line Ovarian OVCAR-4, CL6002; for sensitivity class Ovarian OVCAR-5 CL6003: cell line Ovarian OVCAR-5, CL6003; for sensitivity class Ovarian OVCAR-8 CL6005: cell line Ovarian OVCAR-8, CL6005; for sensitivity class Prostate DU-145 CL11003: cell line Prostate DU-145, CL11003; for sensitivity class Renal A498 CL9013: cell line Renal A498, CL9013
# Outline: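 Values come from the NCI-DTP screen database: -log GI50, the concentration giving 50% growth inhibition, derived from SRB cell-mass dose-response curves. Each line seeded at its own density, treated day 1 at five ten-fold-spaced doses in duplicate wells, stained after 48 h.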
# [2] = tested on: 60 cancer cell lines (NCI 60 cancer cell line series); conditions: cited from earlier work
compound,measurement,setting,value
"CC(=O)O[C@@]12CO[C@@H]1C[C@H](O)[C@@]1(C)C(=O)[C@H](O)C3=C(C)[C@@H](OC(=O)[C@H](O)[C@@H](NC(=O)OC(C)(C)C)c4ccccc4)C[C@@](O)([C@@H](OC(=O)c4ccccc4)[C@H]21)C3(C)C [Taxotere, docetaxel]",anti-tumor activity,tumor,good anti-tumor activity
"N.N.[Cl][Pt][Cl] [cisplatin, cis-Diamminedichloroplatinum (II), reference compound]","classification of cell line as Low(1), Medium(2) or High(3) sensitivity to compound",[1]; Breast BT-549 (CL5013),2
same,"classification of cell line as Low(1), Medium(2) or High(3) sensitivity to compound",[1]; Breast HS-578T CL5006,2
same,"classification of cell line as Low(1), Medium(2) or High(3) sensitivity to compound",[1]; Breast MCF7/ADRr (CL5002),2
same,"classification of cell line as Low(1), Medium(2) or High(3) sensitivity to compound",[1]; Breast MDA-MB-231 CL5005,1
same,"classification of cell line as Low(1), Medium(2) or High(3) sensitivity to compound",[1]; Breast MDA-N CL5012,2
same,"classification of cell line as Low(1), Medium(2) or High(3) sensitivity to compound",[1]; Breast T-47D (CL5014),1
same,"classification of cell line as Low(1), Medium(2) or High(3) sensitivity to compound",[1]; CNS SF-268 CL12014,3
same,"classification of cell line as Low(1), Medium(2) or High(3) sensitivity to compound",[1]; CNS SF-539 CL12016,2
same,"classification of cell line as Low(1), Medium(2) or High(3) sensitivity to compound",[1]; CNS SNB-75(I) CL12005,2
same,"classification of cell line as Low(1), Medium(2) or High(3) sensitivity to compound",[1]; CNS U251(I) CL12009,2
same,"classification of cell line as Low(1), Medium(2) or High(3) sensitivity to compound",[1]; Colon COLO-250 CL4010,1
same,"classification of cell line as Low(1), Medium(2) or High(3) sensitivity to compound",[1]; Colon HCC-2998 (CL4002),2
same,"classification of cell line as Low(1), Medium(2) or High(3) sensitivity to compound",[1]; Colon HCT-15 CL4015,1
same,"classification of cell line as Low(1), Medium(2) or High(3) sensitivity to compound",[1]; Colon HT29(I) CL4001,1
same,"classification of cell line as Low(1), Medium(2) or High(3) sensitivity to compound",[1]; Colon SW-620 (CL4009),2
same,"classification of cell line as Low(1), Medium(2) or High(3) sensitivity to compound",[1]; Leukemia HL-60(I) (CL7008),3
same,"classification of cell line as Low(1), Medium(2) or High(3) sensitivity to compound",[1]; Leukemia K562(I) CL7005,2
same,"classification of cell line as Low(1), Medium(2) or High(3) sensitivity to compound",[1]; Leukemia RPMI-8226(I) (CL7010),2
same,"classification of cell line as Low(1), Medium(2) or High(3) sensitivity to compound",[1]; Melanoma LOX IMVI CL10001,3
same,"classification of cell line as Low(1), Medium(2) or High(3) sensitivity to compound",[1]; Melanoma M14 (CL10014),2
same,sensitivity class NSCLC NCI-H23(I) CL1001,[1],3
same,sensitivity class NSCLC NCI-H460 CL1021,"[1]; cell line NSCLC NCI-H460, CL1021",3
same,sensitivity class NSCLC NCI-H522 CL1003,[1],2
same,sensitivity class Ovarian IGROV1 CL6010,[1],2
same,sensitivity class Ovarian OVCAR-4 CL6002,[1],2
same,sensitivity class Ovarian OVCAR-5 CL6003,[1],2
same,sensitivity class Ovarian OVCAR-8 CL6005,[1],2
same,sensitivity class Prostate DU-145 CL11003,[1],2
same,sensitivity class Renal A498 CL9013,[1],1
same,sensitivity class Renal RXF-393 CL9016,"[1]; cell line Renal RXF-393, CL9016",2
same,sensitivity class Renal UO-31 CL9004,"[1]; cell line Renal UO-31, CL9004",2
same,-Log (GI50),[2]; Breast MCF7(I) (CL5001),5.5
same,-Log (GI50),[2]; Ovarian SK-OV-3 CL6011,5.2
Bleomycin,"classification of cell line as Low(1), Medium(2) or High(3) sensitivity to compound",[1]; Breast MCF7(I) (CL5001),2
same,"classification of cell line as Low(1), Medium(2) or High(3) sensitivity to compound",[1]; Breast MCF7/ADRr (CL5002),2
same,"classification of cell line as Low(1), Medium(2) or High(3) sensitivity to compound",[1]; Breast MDA-MB-231 CL5005,1
same,"classification of cell line as Low(1), Medium(2) or High(3) sensitivity to compound",[1]; Breast MDA-MB-435 (CL5011),1
same,"classification of cell line as Low(1), Medium(2) or High(3) sensitivity to compound",[1]; Breast MDA-N CL5012,1
same,"classification of cell line as Low(1), Medium(2) or High(3) sensitivity to compound",[1]; Breast T-47D (CL5014),2
same,"classification of cell line as Low(1), Medium(2) or High(3) sensitivity to compound",[1]; CNS SF-268 CL12014,2
same,"classification of cell line as Low(1), Medium(2) or High(3) sensitivity to compound",[1]; CNS SF-295 CL12015,3
same,"classification of cell line as Low(1), Medium(2) or High(3) sensitivity to compound",[1]; CNS SF-539 CL12016,3
same,"classification of cell line as Low(1), Medium(2) or High(3) sensitivity to compound",[1]; CNS SNB-19 (CL12002),2
same,"classification of cell line as Low(1), Medium(2) or High(3) sensitivity to compound",[1]; CNS SNB-75(I) CL12005,2
same,"classification of cell line as Low(1), Medium(2) or High(3) sensitivity to compound",[1]; CNS U251(I) CL12009,2
same,"classification of cell line as Low(1), Medium(2) or High(3) sensitivity to compound",[1]; Colon COLO-250 CL4010,2
same,"classification of cell line as Low(1), Medium(2) or High(3) sensitivity to compound",[1]; Colon HCT-15 CL4015,2
same,"classification of cell line as Low(1), Medium(2) or High(3) sensitivity to compound",[1]; Colon HCT-116 (CL4003),2
same,"classification of cell line as Low(1), Medium(2) or High(3) sensitivity to compound",[1]; Colon HT29(I) CL4001,1
same,"classification of cell line as Low(1), Medium(2) or High(3) sensitivity to compound",[1]; Colon KM12 (CL4017),1
same,"classification of cell line as Low(1), Medium(2) or High(3) sensitivity to compound",[1]; Colon SW-620 (CL4009),2
same,"classification of cell line as Low(1), Medium(2) or High(3) sensitivity to compound",[1]; Leukemia CCRF-CEM(I) (CL7003),2
same,"classification of cell line as Low(1), Medium(2) or High(3) sensitivity to compound",[1]; Leukemia HL-60(I) (CL7008),2
same,"classification of cell line as Low(1), Medium(2) or High(3) sensitivity to compound",[1]; Leukemia K562(I) CL7005,2
same,"classification of cell line as Low(1), Medium(2) or High(3) sensitivity to compound",[1]; Leukemia MOLT-4 (CL7006),2
same,"classification of cell line as Low(1), Medium(2) or High(3) sensitivity to compound",[1]; Leukemia SR CL7019,3
same,"classification of cell line as Low(1), Medium(2) or High(3) sensitivity to compound",[1]; Melanoma LOX IMVI CL10001,3
same,"classification of cell line as Low(1), Medium(2) or High(3) sensitivity to compound",[1]; Melanoma M14 (CL10014),2
same,"classification of cell line as Low(1), Medium(2) or High(3) sensitivity to compound",[1]; Melanoma MALME-3M CL10002,2
same,sensitivity class NSCLC NCI-H23(I) CL1001,[1],2
same,sensitivity class NSCLC NCI-H332M CL1017,"[1]; cell line NSCLC NCI-H332M, CL1017",1
same,sensitivity class NSCLC NCI-H522 CL1003,[1],2
same,sensitivity class Ovarian IGROV1 CL6010,[1],2
same,sensitivity class Ovarian OVCAR-3 CL6001,"[1]; cell line Ovarian OVCAR-3, CL6001",2
same,sensitivity class Ovarian OVCAR-4 CL6002,[1],2
same,sensitivity class Ovarian OVCAR-5 CL6003,[1],2
same,sensitivity class Ovarian OVCAR-8 CL6005,[1],2
same,sensitivity class Ovarian SK-OV-3 CL6011,"[1]; cell line Ovarian SK-OV-3, CL6011",2
same,sensitivity class Prostate DU-145 CL11003,[1],2
same,sensitivity class Prostate PC-3(I) CL11001,"[1]; cell line Prostate PC-3(I), CL11001",2
same,sensitivity class Renal 786-O CL9018,"[1]; cell line Renal 786-O, CL9018",2
same,sensitivity class Renal A498 CL9013,[1],2
same,sensitivity class Renal ACHN CL9023,"[1]; cell line Renal ACHN, CL9023",3
same,sensitivity class Renal SN12C CL9008,"[1]; cell line Renal SN12C, CL9008",2
same,sensitivity class Renal TK10 CL9024,"[1]; cell line Renal TK10, CL9024",1
same,1 # of Low,[1]; number of the 60 cell lines classified Low (1) sensitivity,12
same,-Log (GI50),[2]; Breast BT-549 (CL5013),5.0 and 5.1
same,-Log (GI50),[2]; Breast MCF7(I) (CL5001),5.7 and 5.5
same,-Log (GI50),[2]; Breast MCF7/ADRr (CL5002),6.1 and 6.0
same,-Log (GI50),[2]; Breast MDA-MB-435 (CL5011),4.7 and 4.6
same,-Log (GI50),[2]; Breast MDA-N CL5012,4.8 and 4.6
same,-Log (GI50),[2]; Breast T-47D (CL5014),5.3 and 5.2
same,-Log (GI50),[2]; CNS SF-295 CL12015,7.0 and 7.2
same,-Log (GI50),[2]; CNS SF-539 CL12016,7.7
same,-Log (GI50),[2]; CNS SNB-19 (CL12002),5.4 and 5.5
same,-Log (GI50),[2]; Colon COLO-250 CL4010,5.2 and 5.3
same,-Log (GI50),[2]; Colon HCC-2998 (CL4002),5.0 and 4.7
same,-Log (GI50),[2]; Colon HCT-116 (CL4003),6.4 and 6.2
same,-Log (GI50),[2]; Colon HT29(I) CL4001,4.9 and 4.8
same,-Log (GI50),[2]; Colon KM12 (CL4017),4.9 and 4.8
same,-Log (GI50),[2]; Colon SW-620 (CL4009),5.1 and 5.0
same,-Log (GI50),[2]; Leukemia HL-60(I) (CL7008),5.2 and 5.3
same,-Log (GI50),[2]; Leukemia MOLT-4 (CL7006),5.9 and 6.2
same,-Log (GI50),[2]; Leukemia RPMI-8226(I) (CL7010),4.8 and 4.9
same,-Log (GI50),[2]; Melanoma LOX IMVI CL10001,6.8
same,-Log (GI50),[2]; Melanoma M14 (CL10014),5.8 and 5.5
same,-Log (GI50),[2]; NSCLC NCI-H23(I) CL1001,6.2 and 6.3
same,-Log (GI50),[2]; NSCLC NCI-H332M CL1017,4.8 and 4.5
same,-Log (GI50),[2]; Ovarian OVCAR-3 CL6001,5.3
same,-Log (GI50),[2]; Ovarian OVCAR-8 CL6005,5.5 and 5.8
same,-Log (GI50),[2]; Ovarian SK-OV-3 CL6011,5.2 and 5.4
same,-Log (GI50),[2]; Prostate DU-145 CL11003,5.4 and 5.5
same,-Log (GI50),[2]; Prostate PC-3(I) CL11001,5.1 and 5.3
same,-Log (GI50),[2]; Renal ACHN CL9023,8.1 and 7.9
same,-Log (GI50),[2]; Renal RXF-393 CL9016,6.7 and 6.6
same,-Log (GI50),[2]; Renal SN12C CL9008,6.0 and 5.9
same,-Log (GI50),[2]; Renal TK10 CL9024,5.0 and 4.7
